According to patent US8134015B2, “Compound inhibiting in vivo phosphorous transport and medicine containing the same” (Kyowa Hakko Kirin Co., Ltd., priority 2003, dated 2012):

Target: T1, rat NaPi-2b (Rattus norvegicus, UniProt Q9JJ09)
T1 construct: expressed in transfected cells; host or cells: Xenopus oocytes injected with cRNA
T1 sequence (Q9JJ09 1-695): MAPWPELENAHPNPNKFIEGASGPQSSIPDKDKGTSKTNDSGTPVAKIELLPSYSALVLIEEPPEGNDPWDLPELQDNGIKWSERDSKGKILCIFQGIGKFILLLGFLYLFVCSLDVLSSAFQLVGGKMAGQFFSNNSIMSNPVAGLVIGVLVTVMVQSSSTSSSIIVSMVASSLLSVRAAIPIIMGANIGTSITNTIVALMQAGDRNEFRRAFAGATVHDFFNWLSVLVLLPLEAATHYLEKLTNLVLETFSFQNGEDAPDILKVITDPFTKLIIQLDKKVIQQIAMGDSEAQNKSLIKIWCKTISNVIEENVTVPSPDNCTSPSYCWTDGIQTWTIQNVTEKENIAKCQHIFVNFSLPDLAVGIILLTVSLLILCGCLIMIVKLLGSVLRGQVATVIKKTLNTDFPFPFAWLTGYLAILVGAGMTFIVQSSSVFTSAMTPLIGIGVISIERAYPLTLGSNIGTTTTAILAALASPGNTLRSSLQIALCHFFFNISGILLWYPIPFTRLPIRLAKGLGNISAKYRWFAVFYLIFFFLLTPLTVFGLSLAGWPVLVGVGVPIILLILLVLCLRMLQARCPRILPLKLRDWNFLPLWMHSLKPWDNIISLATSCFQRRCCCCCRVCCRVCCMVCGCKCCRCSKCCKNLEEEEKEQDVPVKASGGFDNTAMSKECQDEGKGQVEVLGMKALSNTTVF
Assay: Sodium-dependent phosphate uptake of Xenopus oocytes which expressed NaPi-2b (32P)
Type: cell-based
Conditions: for inhibition at 300 µM: phosphate uptake, oocytes expressing rat NaPi-2b, determined from inhibition curve; for IC50: Xenopus oocytes expressing rat NaPi-2b, 32P radioactive phosphorus, read-out: IC50 (phosphate uptake inhibitory activity)
Method in brief: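 Steps: rat NaPi-2b cDNA cloned from small intestine; cRNA made and injected into oocytes; 2-day expression; 32P phosphate uptake with compound; % inhibition at 300/100 μM taken from one curve.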

inhibition at 300 µM [%] | IC50 [µM] | SMILES
76 |  | Cc1ccc(/C=N/NC(=O)c2scc(C)c2NC(=O)c2cccc(CN3CCN(CCO)CC3)c2)cc1C [Compound 532, N-[2-(3,4-Dimethyl-benzylidene-hydrazinocarbonyl)-4-methyl-thiophen-3-yl]-3-[4-(2-hydroxy-ethyl)-piperazin-1-ylmethyl]-benzamide]
 | 17.9 | O=C(Nc1sc2c(c1C(=O)N/N=C/c1ccc(Cl)c(C(F)(F)F)c1)CCC2)c1cccc(CN2CCC(CO)CC2)c1 [Compound 820, N-[3-(4-Chloro-3-trifluoromethyl-benzylidene-hydrazinocarbonyl)-5,6-dihydro-4H-cyclopenta[b]thiophen-2-yl]-3-(4-hydroxymethyl-piperidin-1-ylmethyl)-benzamide]
 | 55.5 | COc1ccc(C(=O)Nc2ccc(OCCN(C)C)cc2C(=O)N/N=C/c2ccc(F)cc2)cc1OC [Compound 139, N-[4-(2-Dimethylamino-ethoxy-)-2-(4-fluoro-benzylidene-hydrazinocarbonyl)-phenyl]-3,4-dimethoxy-benzamide]
 | 4.92 | COc1ccc(/C=N/NC(=O)c2c(NC(=O)c3cccc(CN4CCC(CO)CC4)c3)sc3ccccc23)cc1 [Compound 803, 3-(4-Hydroxymethyl-piperidin-1-ylmethyl)-N-[3-(4-methoxy-benzylidene-hydrazinocarbonyl)-benzo[b]thiophen-2-yl]-benzamide]
 | < 1 | COc1ccc(C(=O)Nc2ccc(I)cc2C(=O)N/N=C/c2ccc(Cl)c(C(F)(F)F)c2)cc1OC [Compound 209, N-[2-(4-Chloro-3-trifluoromethyl-benzylidene-hydrazinocarbonyl)-4-iodo-phenyl]-3,4-dimethoxy-benzamide]
 | < 10 | O=C(Nc1ccc(Br)cc1C(=O)N/N=C/c1ccc(F)cc1)c1ccc(CSc2ccncc2)cc1 [Compound 256, N-[4-Bromo-2-(4-fluoro-benzylidene-hydrazinocarbonyl)-phenyl]-4-(pyridin-4-ylsulfanylmethyl)-benzamide]
 | < 3 | CCN(CC)CCSCc1cccc(C(=O)Nc2ccc(N3CCCCC3)cc2C(=O)N/N=C/c2ccc(C)c(C)c2)c1 [Compound 876, 3-(2-Diethylamino-ethylsulfanylmethyl)-N-[2-(3,4-dimethyl-benzylidene-hydrazinocarbonyl)-4-piperidin-1-yl-phenyl]-benzamide]
 | 2.15 | Cc1cc(C(=O)Nc2ccccc2C(=O)N/N=C/c2cccc(F)c2)c(C)o1 [Compound 514, 2,5-Dimethyl-furan-3-carboxylic acid [2-(3-fluoro-benzylidene-hydrazinocarbonyl)-phenyl]-amide]
57.9 |  | O=c1c2cc(Cl)ccc2nc(-c2cccc(CSCCS(=O)(=O)O)c2)n1/N=C/c1ccc(Cl)c(C(F)(F)F)c1 [Compound 703, 2-(3-{6-Chloro-3-[(4-chloro-3-trifluoromethyl-benzylidene)-amino]-4-oxo-3,4-dihydro-quinazolin-2-yl}-benzylsulfanyl)-ethanesulfonic acid]
 | 27.2 | Cc1ccc(/C=N/NC(=O)c2cccnc2NC(=O)c2cccc(CN(CC(C)O)CC(C)O)c2)cc1 (stereo not shown) [Compound 965, 3-{[Bis-(2-hydroxy-propyl)-amino]-methyl}-N-[3-(4-methyl-benzylidene-hydrazinocarbonyl)-pyridin-2-yl]-benzamide]
 | < 3 | Cc1csc(NC(=O)c2cccc(CN(CC(C)O)CC(C)O)c2)c1C(=O)N/N=C/c1ccc(F)cc1 (stereo not shown) [Compound 589, 3-{[Bis-(2-hydroxy-propyl)-amino]-methyl}-N-[3-(4-fluoro-benzylidene-hydrazinocarbonyl)-4-methyl-thiophen-2-yl]-benzamide]
57.7 |  | COc1ccc(C(=O)Nc2sc(C)cc2C(=O)N/N=C/c2ccc(Cl)c(C(F)(F)F)c2)cc1OC [Compound 955, N-[3-(4-Chloro-3-trifluoromethyl-benzylidene-hydrazinocarbonyl)-5-methyl-thiophen-2-yl]-3,4-dimethoxy-benzamide]
 | 6.57 | CC(O)CN(Cc1cccc(C(=O)Nc2ncccc2C(=O)N/N=C/c2ccc(Cl)c(C(F)(F)F)c2)c1)CC(C)O (stereo not shown) [Compound 967, 3-{[Bis-(2-hydroxy-propyl)-amino]-methyl}-N-[3-(4-chloro-3-trifluoromethyl-benzylidene-hydrazinocarbonyl)-pyridin-2-yl]-benzamide]
 | 6.93 | Cc1ccc(/C=N/NC(=O)c2c(C)csc2NC(=O)c2cccc(CN(C)C)c2)cc1 [Compound 823, 3-Dimethylaminomethyl-N-[4-methyl-3-(4-methyl-benzylidene-hydrazinocarbonyl)-thiophen-2-yl]-benzamide]
 | 11.2 | C/C(=N\NC(=O)c1cc(Cl)ccc1NC(=O)c1cccnc1)c1ccc(C)cc1 [Compound 217, N-[4-Chloro-2-(1-p-toluyl-ethylidene-hydrazinocarbonyl)-phenyl]-nicotinamide]
 | < 3 | Cc1csc(NC(=O)c2cccc(CN3CCC(CO)CC3)c2)c1C(=O)N/N=C/c1ccc(F)cc1 [Compound 601, N-[3-(4-Fluoro-benzylidene-hydrazinocarbonyl)-4-methyl-thiophen-2-yl]-3-(4-hydroxymethyl-piperidin-1-ylmethyl)-benzamide]
 | < 3 | CCN(CC)CCN(C)Cc1cccc(C(=O)Nc2ccc(I)cc2C(=O)N/N=C/c2cccc(F)c2)c1 [Compound 472, 3-{[(2-Diethylamino-ethyl)-methyl-amino]-methyl}-N-[2-(3-fluoro-benzylidene-hydrazinocarbonyl)-4-iodo-phenyl]-benzamide]
 | 1.02 | COc1cc(OC)cc(C(=O)Nc2ccccc2C(=O)N/N=C/c2ccc(C)cc2)c1 [Compound 57, 3,5-Dimethoxy-N-[2-(4-methyl-benzylidene-hydrazinocarbonyl)-phenyl]-benzamide]
85.1 |  | CCSCCNCc1ccc(C(=O)Nc2ccc(Br)cc2C(=O)N/N=C/c2cccc(OC)c2)cc1 [Compound 771, N-[4-Bromo-2-(3-methoxy-benzylidene-hydrazinocarbonyl)-phenyl]-4-[(2-ethylsulfanyl-ethylamino)-methyl]-benzamide]
37.6 |  | CCN(CC)CCN(C)Cc1cccc(-c2nc3ccc(N4CCCN(C)CC4)cc3c(=O)n2/N=C/c2ccc(OC)cc2)c1 [Compound 933, 2-(3-{[(2-Diethylamino-ethyl)-methyl-amino]-methyl}-phenyl)-3-[(4-methoxy-benzylidene)-amino]-6-(4-methyl-[1,4]diazepan-1-yl)-3H-quinazolin-4-one]
83.1 |  | CCN(CC)CCN(C)Cc1cccc(C(=O)Nc2c(C)csc2C(=O)N/N=C/c2ccc(C)cc2)c1 [Compound 710, 3-{[(2-Diethylamino-ethyl)-methyl-amino]-methyl}-N-[4-methyl-2-(4-methyl-benzylidene-hydrazinocarbonyl)-thiophen-3-yl]-benzamide]
 | 1.88 | CCN(CC)CCN(CCN(CC)CC)Cc1cccc(C(=O)Nc2sc3c(c2C(=O)N/N=C/c2ccc(C)cc2)CCCC3)c1 [Compound 1056, 3-{[Bis-(2-diethylamino-ethyl)-amino]-methyl}-N-[3-(4-methyl-benzylidene-hydrazinocarbonyl)-4,5,6,7-tetrahydro-benzo[b]thiophen-2-yl]-benzamide]
 | 9.22 | CCN(CC)CCNCc1ccc(C(=O)Nc2ccc(Br)cc2C(=O)N/N=C/c2ccc(OC)cc2)cc1 [Compound 298, N-[4-Bromo-2-(4-methoxy-benzylidene-hydrazinocarbonyl)-phenyl]-4-[(2-diethylamino-ethylamino)-methyl]-benzamide]
 | 7.82 | O=C(Nc1ccccc1C(=O)N/N=C/c1cccc(F)c1)c1ccncc1 [Compound 134, N-[2-(3-Fluoro-benzylidene-hydrazinocarbonyl)-phenyl]-isonicotinamide]
 | < 0.3 | O=C(Nc1ccc(N2CCCCC2)cc1C(=O)N/N=C/c1ccc(Cl)c(C(F)(F)F)c1)c1cccc(CN2CCN(CCO)CC2)c1 [Compound 868, N-[2-(4-Chloro-3-trifluoromethyl-benzylidene-hydrazinocarbonyl)-4-piperidin-1-yl-phenyl]-3-[4-(2-hydroxy-ethyl)-piperazin-1-ylmethyl]-benzamide]
 | 6.13 | COc1ccc(/C=N/NC(=O)c2cc(Cl)ccc2NC(=O)c2cccc(CN(C)CCO)c2)cc1 [Compound 401, N-[4-Chloro-2-(4-methoxy-benzylidene-hydrazinocarbonyl)-phenyl]-3-{[(2-hydroxy-ethyl)-methyl-amino]-methyl}-benzamide]
 | 10.1 | CC(O)CN(Cc1cccc(C(=O)Nc2sccc2C(=O)N/N=C/c2cccc(F)c2)c1)CC(C)O (stereo not shown) [Compound 673, 3-{[Bis-(2-hydroxy-propyl)-amino]-methyl}-N-[3-(3-fluoro-benzylidene-hydrazinocarbonyl)-thiophen-2-yl]-benzamide]
 | 4.69 | COc1cccc(/C=N/NC(=O)c2cc(Br)ccc2NC(=O)c2ccc(CN3CCN(CCO)CC3)cc2)c1 [Compound 323, N-[4-Bromo-2-(3-methoxy-benzylidene-hydrazinocarbonyl)-phenyl]-4-[4-(2-hydroxy-ethyl)-piperazin-1-ylmethyl]-benzamide]
